Data set [1] can be described thus: Potentiation of narcosis with pentobarbital (loss of righting reflex). The data set is classed as in vivo, mouse (CD1 Charles Rivers mice). The note with it: mouse, products at 100 mg/kg p.os., 60 min before pentobarbital 20 mg/kg i.p. How it is done: For the purpose of evaluating the hypnogenic power of the products, their capacity to potentiate the effects of a subnarcotic dose of pentabarbital in the mouse was studied. The batches were constituted by 10 CD1 Charles Rivers mice, of weight comprised between 20 and 24 g.
The pentobarbital (20 mg/kg, i.p.) was administered 60 minutes after administration of the products. The drowsiness criterion taken was the loss of the righting reflex.

Data set [2] can be described thus: Acute toxicity, determination of the lethal dose in the mouse. The note with it: in vivo, po, read-out: Percent toxicity (animals which die in 72 hours). As to the method:
The toxicity of the products according to the invention was studied: the products were administered orally, to batches of 5 CD Charles Rivers female mice, of weights comprised between 20 and 24 g. The toxicity was noted during the 72 hours which followed the administration of the products.
The results expressed as a percentage of animals which die in the 72 hours following the oral administration of the products, are noted in the preceding table.

Data set [3] in a line: Antagonism of convulsions and of mortality caused by bicucullin. The data set is classed as in vivo, mouse (CD Charles Rivers mice). How it is done: (§1) The anticonvulsant effect of the products in the mouse was evaluated on a model of convulsions caused by electric shock, and on 2 models of convulsions induced by chemical agents: bicuculline and 3-mercaptopropionic acid.
The batches were constituted by 10 CD Charles Rivers mice of weights comprised between 20 and 22 g. The products were administered orally, 60 minutes before the bicucullin (0.8 mg/kg, i.v.).

Data set [4] in a line: Antagonism of the convulsions induced by electric shock. The note with it: mouse, oral, 60 min before electroshock; probit method, confidence limits in parentheses, p <= 0.05; read-out: Median effective dose (ED50) of electric shock antagonism. The data set is classed as in vivo, mouse (CD1 Charles Rivers mice). How it is done: as §1
The test was slightly modified from that of Swinyard et al., J. Pharm. Exp. Ther., 1952, 106, 319-330 and Asami et al. Arzneim. Forsch., 1974, 24 (1), 1563-1568. The equipment was composed of a Racia shock generator provided with two occular electrodes delivering a current of 60 volts for 0.3 seconds. The batches were constituted by 10 CD1 Charles Rivers mice of weight comprised between 20 and 24 g. The products were administered orally, 60 minutes before the electroshock.

The mark [5] stands for this setting: Mus musculus, po, read-out: Median effective dose (ED50) of the antagonism to the effects of bicucullin: Mortality.
Setting [6] is: mouse, oral, 60 min before bicucullin 0.8 mg/kg i.v., probit method, confidence limits in parentheses, p < 0.05, read-out: Median effective dose (ED50) of the antagonism to the effects of bicucullin: Tonic convulsions.

In general, ED50 refers to the dose at which the effect has come halfway, by size or by number of responders.

SMILES strings stand for the structures. Read-outs that look alike come from different tables or passages of the source.

As to `COc1ccc(CC2CC(C)(C)C(=O)N2)cc1OC` (stereo not drawn) [SR 41677], the “Potentiation of pentobarbital, percent of animals in narcosis” value in data set [1] is listed as 30%. The mortality at 72 h in data set [2] (250 mg/kg p.os.) and in data set [2] (500 mg/kg p.os.) was 0% each time.
In the case of `COc1ccc(CC2CC(c3ccccc3)C(=O)N2)cc1OC` (stereo not drawn) [SR 41773], the mortality at 72 h in data set [2] (250 mg/kg p.os.) and in data set [2] (500 mg/kg p.os.) was 0% throughout.
On to `CC1(C)CC(Cc2ccccc2Cl)NC1=O` (stereo not drawn) [SR 41880], for which the “Potentiation of pentobarbital, percent of animals in narcosis” value in data set [1] worked out at 40%. Besides, the values for the mortality at 72 h in data set [2] (250 mg/kg p.os.), in data set [2] (500 mg/kg p.os.) and in data set [2] (1000 mg/kg p.os.) were 0%, 0% and 20%, respectively.
As to `CCC1(C)CC(Cc2ccccc2F)NC1=O` (stereo not drawn) [SR 42001, 3-ethyl-5-[(2-fluoro-phenyl)-methyl]-3-methyl 2-pyrrolidinone], the “Potentiation of pentobarbital, percent of animals in narcosis” value in data set [1] is on record as 20%. Besides, the ED50 in data set [3] (setting [5]) came to 62 mg/kg; in data set [3] (setting [6]), 83 mg/kg. The mortality at 72 h in data set [2] (250 mg/kg p.os.) came to 0%; in data set [2] (500 mg/kg p.os.), 0%; in data set [2] (1000 mg/kg p.os.) it was 20%.
For the compound `Cc1ccc(CC2CC(C)(C)C(=O)N2)cc1` (stereo not drawn) [SR 42003], the mortality at 72 h in data set [2] (250 mg/kg p.os.), in data set [2] (500 mg/kg p.os.) and in data set [2] (1000 mg/kg p.os.) was 0% each time.
Take `CCCCC1([Si](C)(C)C)CC(Cc2ccccc2)NC1=O` (stereo not drawn) [SR 42133]: the mortality at 72 h in data set [2] (250 mg/kg p.os.), in data set [2] (500 mg/kg p.os.) and in data set [2] (1000 mg/kg p.os.) was 0% each time.
With `C[Si](C)(C)C1CC(Cc2ccccc2)NC1=O` (stereo not drawn) [SR 42134], the mortality at 72 h in data set [2] (250 mg/kg p.os.), in data set [2] (500 mg/kg p.os.) and in data set [2] (1000 mg/kg p.os.) was 0% each time.
As for `CC1CC(Cc2cccc(C(F)(F)F)c2)NC1=O` (stereo not drawn) [SR 42401], the ED50 in data set [4] was 39 mg/kg; in data set [3] (setting [5]), 72 mg/kg; in data set [3] (setting [6]), 62 mg/kg. For the same compound, the mortality at 72 h in data set [2] (250 mg/kg p.os.) and in data set [2] (500 mg/kg p.os.) was 0% throughout.
For `CC1(C)CC(Cc2ccc(Cl)cc2Cl)NC1=O` (stereo not drawn) [SR 42508], the 50% effective dose (ED50) in data set [4] is 50 mg/kg; in data set [3] (setting [5]) it was 73 mg/kg; in data set [3] (setting [6]), roughly 100 mg/kg. Moreover, the mortality at 72 h in data set [2] (250 mg/kg p.os.), in data set [2] (500 mg/kg p.os.) and in data set [2] (1000 mg/kg p.os.) was 0% throughout.
In the case of `CC1CC(Cc2cccc(Cl)c2)NC1=O` (stereo not drawn) [SR 42717], the ED50 is 41 mg/kg in data set [4], 59 mg/kg in data set [3] (setting [5]) and roughly 100 mg/kg in data set [3] (setting [6]). The mortality at 72 h in data set [2] (250 mg/kg p.os.) is 0%; in data set [2] (500 mg/kg p.os.), 0%; in data set [2] (1000 mg/kg p.os.), 100%.
For the compound `CC1(C)CC(Cc2cccc(C(F)(F)F)c2)NC1=O` (stereo not drawn) [SR 42725], the ED50 in data set [4] is 34 mg/kg; in data set [3] (setting [5]), 66 mg/kg; in data set [3] (setting [6]) it was roughly 100 mg/kg. The mortality at 72 h in data set [2] (250 mg/kg p.os.), in data set [2] (500 mg/kg p.os.) and in data set [2] (1000 mg/kg p.os.) was 0% in each case.
Turning to `CC(C)C1CC(Cc2ccc(Cl)cc2)NC1=O` (stereo not drawn) [SR 42726], the ED50 in data set [4] amounted to 72 mg/kg. The mortality at 72 h was 0% in data set [2] (250 mg/kg p.os.), 0% in data set [2] (500 mg/kg p.os.) and 20% in data set [2] (1000 mg/kg p.os.).

The values above are taken from patent publication US4604383A, “Pyrrolidin-2-ones and medicaments containing them” (Societe Anonyme Styled: SANOFI, priority 1983, dated 1986).
